Tests used:
human tumor cell lines = test: component-wise IC50 values of the SANGER drug sensitivity dataset, clustered by generalized FMMR cell line components; type: cell-based; details: for magnitude of IC50s for overlapping component 12: component-wise IC50 boxplots, FIG. 11A-11E, cell line components 1, 2 and 12
Text: Cancer cell lines have frequently been used as a convenient way of conducting such studies. For a systematic search of therapeutic biomarkers to a variety of cancer drugs, Garnett et al. (2012) screened 639 human tumor cell lines which represent much of the tissue-type and genetic diversity of human cancers with 130 drugs. These drugs, including approved drugs, drugs in development as well as experimental tool compounds, cover a wide range of targets and processes involved in cancer biology. In the Garnett et al. work, a range of 275-507 cell lines were screened for each drug. The effect of a 72 h drug treatment on cell viability was used to derive measures of drug sensitivity, including the half-maximal inhibitory concentration (IC50). In addition, the cell lines underwent sequencing of 64 known cancer genes, genome-wide analysis of copy number gains and losses, and expression profiling of 14,500 genes.
We applied the innovative techniques herein to analyzing the SANGER high throughput drug sensitivity dataset for cancer. […] The responses, made up with IC50 values from pairwise drug-cell-line screening, has some missing values. Therefore the data was first filtered by removing cell lines for which less than 50% of the drugs were tested, resulting in 591 cell lines remaining. In the remaining data, about 37.4% of the cell lines are with missing values. These missing values are imputed via the random forest imputation algorithm (Ishwaran, Kogalur, Blackstone and Lauer 2008; Stekhoven and Buhlmann 2012).
In order to identify patterns of cancer-specific therapeutic biomarkers, we employed method gEMseplasso in the analysis. […]
In the second step, the process uses an affinity-propagation clustering (APC) algorithm (Frey and Dueck 2007) to group the 140 drugs based on results from the first step. […] The pair-wise similarity matrix required by the algorithm as input data is calculated from the Euclidean distance between Za and Zb. […] The pair-wise similarity matrix is calculated from the Euclidean distance between Bk^a and Bk^b for k=1, . . . , 3. […]

soft tissue cancer = soft tissue cancer resistant to standard chemotherapy (doxyrubicin); small sample size phase II study; cited from earlier work
[1] = system: chronic myeloid leukemia (CML); details: cited from earlier work

With `COc1cc2ncn(-c3cc(OCc4ccccc4C(F)(F)F)c(C(N)=O)s3)c2cc1OC` [GW843682X] the “component with highest IC50s” value (human tumor cell lines; among cell line components 1, 2, and 12) was “component 2” and the “magnitude of IC50s for overlapping component 12” value (human tumor cell lines) was “between those for component 1 and 2”.

For `Nc1ccn([C@@H]2O[C@H](CO)[C@@H](O)C2(F)F)c(=O)n1` [Gemcitabine], the “effectiveness in soft tissue cancer” value (soft tissue cancer) is given as “effective”.

In the case of `Nc1ccccc1NC(=O)c1ccc(CNC(=O)OCc2cccnc2)cc1` [MS.275], the “magnitude of IC50s for overlapping component 12” value (human tumor cell lines) is reported as “between those for component 1 and 2”.

In the case of `Cc1ccc(NC(=O)c2ccc(CN3CCN(C)CC3)cc2)cc1Nc1nccc(-c2cccnc2)n1` [imatinib], the blood counts ([1]; CML patients who had exhausted standard treatment options, tested in 1998) is listed as “returning to normal” and the five-year survival rate ([1]; CML patients) is listed as 95%.
